19 molecules from US9856264B2, “Isoquinolinesulfonyl derivative as RHO kinase inhibitor” (MEDSHINE DISCOVERY INC., priority 2014, dated 2018) can be followed below.

pIC50: −log10 of the molar value.

In general, pIC50 refers to −log10 of the IC50, conventionally taken in molar units.

This assay deals with ROCK kinase. Put plainly: In vitro ROCK kinase inhibition activity evaluation (33P-ATP filter-binding). It is filed as biochemical. Set-up: key to ROCK inhibition activity: 1 μM ≦ + < 5 μM; 0.1 μM ≦ ++ < 1 μM; +++ < 0.1 μM; −− N/A. To be noted: 1 nM ROCK kinase, 20 μM Long S6 Kinase substrate peptide, 2 h room temperature. As for the experimental part:
Biological Activity Experiment: In Vitro ROCK Kinase Inhibition Activity Evaluation
Experimental Objective: Test ROCK Inhibition IC50 Value of Invented Compounds
Buffer solution: 20 mM Hepes (pH 7.5), 10 mM MgCl2, 1 mM EGTA, 0.02% Brij35, 0.02 mg/ml BSA, 0.1 mM Na3VO4, 2 mM DTT, 1% DMSO
To a freshly prepared buffer solution was added ROCK substrate Long S6 Kinase substrate peptide, with concentration at 20 μM. 1 nM ROCK kinase was then added, and well stirred. A series of DMSO solution (starting from 10 μM, dilution factor 3) of testing article was added using Echo550. The mixture was incubated for 20 min at room temperature, then was added ^33P-ATP (radioactive intensity 10 μCi/μL) to initiate reaction and further reacted for 2 h at room temperature. The mixture was filtered through P81 ion exchange paper (Whatman #3698-915), and washed by 0.75% phosphoric acid. The intensity of radiation was measured by Filter-Binding method.
The inhibition activity of the testing articles were measured by comparing the residue kinase activity to blank substrate (pure DMSO). Using Prism software ((GraphPad Software, San Diego Calif., USA) to calculate IC50 and curve.
As for `O=S(=O)(c1cccc2cncc(Cl)c12)N1CC2CCNCC2C1` (stereo not shown) [Example 23, 4-chloro-5-((hexahydro-1H-pyrrolo[3,4-c]pyridin-2(3H)-yl)sulfonyl)isoquinoline], the pIC50 was 6.00 to 7.00.

Regarding `O=S(=O)(c1cccc2cncc(F)c12)N1C[C@@H]2CCN[C@@H]2C1` [Example 25, 4-fluoro-5-((hexahydropyrrolo[3,4-b]pyrrol-5(1H)-yl)sulfonyl)isoquinoline], the pIC50 was 6.00 to 7.00.

Turning to `O=S(=O)(c1cccc2cncc(F)c12)N1CCC2NCCCC21` (stereo not shown) [Example 28, 4-fluoro-5-((octahydro-1H-pyrrolo[3,2-b]pyridin-1-yl)sulfonyl)isoquinoline], the pIC50 was 6.00 to 7.00.

For the molecule `O=S(=O)(c1cccc2cncc(F)c12)N1C[C@H]2CNC[C@H]2C1` [Example 29, 4-fluoro-5-((hexahydropyrrolo[3,4-c]pyrrol-2(1H)-yl)sulfonyl)isoquinoline], the pIC50 was 6.00 to 7.00.

With `O=S(=O)(c1cccc2cncc(F)c12)N1CC2CCCNC2C1` (stereo not shown) [Example 30, 4-fluoro-5-((hexahydro-1H-pyrrolo[3,4-b]pyridin-6(2H)-yl)sulfonyl)isoquinoline], the pIC50 was 6.00 to 7.00.

In the case of `O=S(=O)(c1cccc2cncc(C(F)F)c12)N1C[C@H]2CNC[C@H]2C1` [Example 35, 4-(difluoromethyl)-5-((hexahydropyrrolo[3,4-c]pyrrol-2(1H)-yl)sulfonyl)isoquinoline], the ROCK inhibition activity result is “−−”.

Take `O=S(=O)(c1cccc2cncc(C(F)F)c12)N1CC2CCNCC2C1` (stereo not shown) [Example 36, 4-(difluoromethyl)-5-((hexahydro-1H-pyrrolo[3,4-c]pyridin-2(3H)-yl)sulfonyl)isoquinoline]: the ROCK inhibition activity entry is recorded as “−−”.

Regarding `Cc1cncc2cccc(S(=O)(=O)N3C[C@@H]4CCN[C@@H]4C3)c12` [Example 38, 5-((hexahydropyrrolo[3,4-d]pyrrol-5 (1H)-yl)sulfonyl)-4-methylisoquinoline], the negative logarithm of the IC50 (pIC50) was greater than 7.00.

For the molecule `Cc1cncc2cccc(S(=O)(=O)N3CCC4NCCCC43)c12` (stereo not shown) [Example 42, 4-methyl-5-((octahydro-1H-pyrrolo[3,2-b]pyridin-1-yl)sulfonyl)isoquinoline], the negative logarithm of the IC50 (pIC50) is greater than 7.00.

Take `Cc1cncc2cccc(S(=O)(=O)N3C[C@H]4CNC[C@H]4C3)c12` [Example 43, 5-((hexahydropyrrolo[3,4-c]pyrrol-2(1H)-yl)sulfonyl)-4-methylisoquinoline]: the negative-log IC50 (pIC50) was greater than 7.00.

On to `Cc1cncc2cccc(S(=O)(=O)N3CC4CCNCC4C3)c12` (stereo not shown) [Example 44, 5-((hexahydro-1H-pyrrolo[3,4-c]pyridin-2(3H)-yl)sulfonyl)-4-methylisoquinoline], for which the pIC50 was greater than 7.00.

On to `Cc1cncc2cccc(S(=O)(=O)N3CCC4NCCCC4C3)c12` (stereo not shown) [Example 45, 6-((4-methylisoquinolin-5-yl)sulfonyl)decahydro-1,6-naphthyridine], for which the negative-log IC50 (pIC50) is 5.30 to 6.00.

On to `COc1cncc2cccc(S(=O)(=O)N3CCC4NCCCC43)c12` (stereo not shown) [Example 51, 4-methoxy-5-((octahydro-1H-pyrrolo[3,2-b]pyridin-1-yl)sulfonyl)isoquinoline], for which the pIC50 is 5.30 to 6.00.

For the molecule `COc1cncc2cccc(S(=O)(=O)N3C[C@H]4CNC[C@H]4C3)c12` [Example 52, 5-((hexahydropyrrolo[3,4-c]pyrrol-2(1H)-yl)sulfonyl)-4-methoxyisoquinoline], the pIC50 is 5.30 to 6.00.

Turning to `COc1cncc2cccc(S(=O)(=O)N3CC4CCNCC4C3)c12` (stereo not shown) [Example 53, 5-((hexahydro-1H-pyrrolo[3,4-c]pyridin-2(3H)-yl)sulfonyl)-4-methoxyisoquinoline], the pIC50 was 5.30 to 6.00.

In the case of `COc1cncc2cccc(S(=O)(=O)N3CCC4NCCCC4C3)c12` (stereo not shown) [Example 54, 6-((4-methoxyisoquinolin-5-yl)sulfonyl)decahydro-1,6-naphthyridine], the pIC50 was 5.30 to 6.00.

Regarding `NC12CCC1CN(S(=O)(=O)c1cccc3cnccc13)C2` (stereo not shown) [Example 55, 3-(isoquinolin-5-ylsulfonyl)-3-azabicyclo[3.2.0]heptan-1-amine], the pIC50 was 5.30 to 6.00.

As for `NC12CC1CN(S(=O)(=O)c1cccc3cnccc13)C2` (stereo not shown) [Example 56, 3-(isoquinolin-5-ylsulfonyl)-3-azabicyclo[3.1.0]hexan-1-amine], the pIC50 was 6.00 to 7.00.

`CCNC12CC1CN(S(=O)(=O)c1cccc3cnccc13)C2` (stereo not shown) [Example 57, N-ethyl-3-(isoquinolin-5-ylsulfonyl)-3-azabicyclo[3.1.0]hexan-1-amine]: the negative logarithm of the IC50 (pIC50) was 5.30 to 6.00.
